Values of other authors as cited in patent US20100190757A1, “COMBINATION PREPARATION FOR ORAL CONTREACEPTION AND ORAL THERAPY OF DYSFUNCTIONAL UTERINE BLEEDING CONTAINING ESTRADIOL VALERATE AND DIENOGEST AND METHOD OF USING SAME” (priority 2005, published 2010).

Tested on: dysfunctional uterine bleeding
Conditions: for duration of the bleeding period: 6 anovulatory women (14 days, 12th to 25th day of cycle) and ten ovulatory women (20 days, 5th to 25th day), three times daily, both groups; for reliable contraception: same regimen, anovulatory and ovulatory women

SMILES | duration of the bleeding period | reliable contraception
CC(=O)O[C@]1(C(C)=O)CC[C@H]2[C@@H]3C[C@H](C)C4=CC(=O)CC[C@]4(C)[C@H]3CC[C@@]21C [medroxyprogesterone acetate] | reduced | not attained
C#C[C@]1(O)CC[C@H]2[C@@H]3CCC4=CC(=O)CC[C@@H]4[C@H]3CC[C@@]21C [norethisterone] | reduced | not attained
